Measurements published in patent publication US20230159538A1, “PYRROLIDINE-PYRAZOLES AS PYRUVATE KINASE ACTIVATORS” (Global Blood Therapeutics, Inc., priority 2020, published 2023).

Target: T1, Human pyruvate kinase R (PKR) (Homo sapiens, UniProt P30613)
T1 construct: Human pyruvate kinase R (PKR), residues 14-574; 6x-His (N, cleaved yes); 8x-Arg (N, cleaved yes); SUMO (N, cleaved yes); host or cells: E. coli
Assay: Biochemical assay for activation of pyruvate kinase R (Kinase-Glo luminescence, ATP generation)
Details: for AC50: 0.1 nM PKR, 2 mM FBP, 0.3 mM ADP, 0.1 mM PEP; for PKR % activation: maximal activation level relative to the activation level achieved by AG-348 @ 10 μM
Description: Proteins were translated as fusions with 6×-His, 8×-Arg, and SUMO at the N-terminus. […] All proteins were cloned, expressed in E. coli, and purified using similar protocols. Cells were grown at 30° C. in Luria-Bertani broth supplemented with 0.4% glucose to OD600=0.8 and induced with 0.4 mM IPTG at 16° C. for 18 hours. Cells were harvested by centrifugation, resuspended in 50 mM potassium phosphate pH 8.0, 500 mM NaCl, 25 mM imidazole pH 8.0, and 3 mM β-mercaptoethanol. Cells were lysed using a LM20 microfluidizer from Microfluidics (Westwood, Mass.). The crude lysate was immediately supplemented with 0.2 mM phenylmethylsulfonyl fluoride (PMSF) and centrifuged at 20,000 g for 20 minutes. The soluble fraction was subsequently incubated with 2 mL Ni-NTA (GE Healthcare) per 1,000 ODs for 1 hour at 4° C. Following incubation with the Ni-NTA resin, lysate was removed by pelleting resin at 2,500 g for 3 minutes and washed 3 times with 9 bed volumes of 50 mM potassium phosphate pH 8.0, 500 mM NaCl, 25 mM imidazole, and 3 mM β-mercaptoethanol. Following the batch wash Ni-NTA resin was loaded onto a gravity column and His-tagged protein was eluted with 6 bed volumes of 10 mM Tris/HCl pH 8.0, 200 mM NaCl, 500 mM imidazole, and 3 mM β-mercaptoethanol. Eluted protein was dialyzed overnight against 10 mM Tris/HCl pH 8.0, 200 mM NaCl, and 1 mM DTT and the 6×-His-8×-Arg-SUMO-tag was cleaved using a 20:1 molar ratio of protein:3C protease. The protein was purified by anion exchange chromatography on a HiTrapQ or MonoQ 10/100 GL column (GE Healthcare) via a linear NaCl gradient and twice by size exclusion chromatography using a Superdex S200 26/60 column (GE Healthcare) run in 10 mM Tris/HCl pH 8.0, 200 mM NaCl, 10 mM MgCl2, 1 mM DTT. Proteins were concentrated to ˜12 mg/mL for crystallization and flash frozen for storage.
Biochemical Assay for Activation of Pyruvate Kinase R
Activation of pyruvate kinase R (PKR) and pyruvate kinase M2 (PKM2) were measured using a luminescence based measurement of ATP generation and the Kinase-Glo luminescent kinase reagent kit.

T1 sequence (P30613 14-574): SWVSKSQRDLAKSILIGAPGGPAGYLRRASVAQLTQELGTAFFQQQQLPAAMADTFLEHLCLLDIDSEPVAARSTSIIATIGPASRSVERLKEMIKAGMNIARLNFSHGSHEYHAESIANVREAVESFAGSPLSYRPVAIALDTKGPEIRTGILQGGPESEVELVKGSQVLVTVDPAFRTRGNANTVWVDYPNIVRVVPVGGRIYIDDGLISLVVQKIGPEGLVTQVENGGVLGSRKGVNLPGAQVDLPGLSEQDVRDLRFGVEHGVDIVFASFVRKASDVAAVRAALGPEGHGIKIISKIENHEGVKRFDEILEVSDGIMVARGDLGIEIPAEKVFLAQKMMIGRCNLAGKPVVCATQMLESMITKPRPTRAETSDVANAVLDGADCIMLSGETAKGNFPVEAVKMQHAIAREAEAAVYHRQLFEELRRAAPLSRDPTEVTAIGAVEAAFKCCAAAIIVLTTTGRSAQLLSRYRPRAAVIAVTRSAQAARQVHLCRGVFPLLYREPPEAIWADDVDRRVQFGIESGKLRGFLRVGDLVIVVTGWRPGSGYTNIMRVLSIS

SMILES: Cc1ccc(C2(C(=O)N3Cc4cn(S(=O)(=O)c5ccc6ncsc6c5)nc4C3)CCOC2)cn1 (single isomer, unassigned) [Compound 31, 6-({5-[(3S)-3-(6-methylpyridin-3-yl)oxolane-3-carbonyl]-2H,4H,5H,6H-pyrrolo[3,4-c]pyrazol-2-yl}sulfonyl)-1,3-benzothiazole or 6-({5-[(3R)-3-(6-methylpyridin-3-yl)oxolane-3-carbonyl]-2H,4H,5H,6H-pyrrolo[3,4-c]pyrazol-2-yl}sulfonyl)-1,3-benzothiazole]
- AC50: 173 nM

SMILES: N[C@H](C(=O)N1Cc2cn(S(=O)(=O)c3ccc4ncsc4c3)nc2C1)c1ccccc1F [Compound 38, (2S)-2-amino-1-[2-(1,3-benzothiazole-6-sulfonyl)-2H,4H,5H,6H-pyrrolo[3,4-c]pyrazol-5-yl]-2-(2-fluorophenyl)ethan-1-one]
- AC50: 270 nM

SMILES: O=C([C@H](CO)c1ncccc1F)N1Cc2cn(S(=O)(=O)c3ccc(OC(F)F)cc3)nc2C1 (single isomer, unassigned) [Compound 89, (2S)-1-{2-[4-(difluoromethoxy)benzenesulfonyl]-2H,4H,5H,6H-pyrrolo [3,4-c]pyrazol-5-yl}-2-(3-fluoropyridin-2-yl)-3-hydroxypropan-1-one or (2R)-1-{2-[4-(difluoromethoxy)benzenesulfonyl]-2H,4H,5H,6H-pyrrolo[3,4-c]pyrazol-5-yl}-2-(3-fluoropyridin-2-yl)-3-hydroxypropan-1-one]
- AC50: 7.9 nM
- PKR % activation: 132%

SMILES: COc1ccc(S(=O)(=O)n2cc3c(n2)CN(C(=O)[C@H](CO)c2ccccc2)C3)cn1 [Compound 77, (2S)-3-hydroxy-1-{2-[(6-methoxypyridin-3-yl)sulfonyl]-2H,4H,5H,6H-pyrrolo[3,4-c]pyrazol-5-yl}-2-phenylpropan-1-one]
- AC50: 8.3 nM

SMILES: O=C([C@@H](c1ccccc1)N1CCOCC1)N1Cc2cn(S(=O)(=O)c3ccc(OC(F)F)cc3)nc2C1 (single isomer, unassigned) [Compound 108, (2R)-1-{2-[4-(difluoromethoxy)benzenesulfonyl]-2H,4H,5H,6H-pyrrolo[3,4-c]pyrazol-5-yl}-2-(morpholin-4-yl)-2-phenylethan-1-one or (2S)-1-{2-[4-(difluoromethoxy)benzenesulfonyl]-2H,4H,5H,6H-pyrrolo[3,4-c]pyrazol-5-yl}-2-(morpholin-4-yl)-2-phenylethan-1-one]
- AC50: > 10000 nM
- PKR % activation: 0%

SMILES: O=C1CN([C@@H](C(=O)N2Cc3cn(S(=O)(=O)c4ccc(OC(F)F)cc4)nc3C2)c2ccccc2)C1 (single isomer, unassigned) [Compound 92, 1-[(1R)-2-{2-[4-(difluoromethoxy)benzenesulfonyl]-2H,4H,5H,6H-pyrrolo[3,4-c]pyrazol-5-yl}-2-oxo-1-phenylethyl]azetidin-3-one or 1-[(1S)-2-{2-[4-(difluoromethoxy)benzenesulfonyl]-2H,4H,5H,6H-pyrrolo[3,4-c]pyrazol-5-yl}-2-oxo-1-phenylethyl]azetidin-3-one]
- AC50: 800 nM
- PKR % activation: 120%

SMILES: O=C([C@H](NCCO)c1ccccc1F)N1Cc2cn(S(=O)(=O)c3ccc4ncccc4c3)nc2C1 [Compound 106, (2R)-2-(2-fluorophenyl)-2-[(2-hydroxyethyl)amino]-1-[2-(quinoline-6-sulfonyl)-2H,4H,5H,6H-pyrrolo[3,4-c]pyrazol-5-yl]ethan-1-one]
- AC50: 44 nM

SMILES: N[C@@H](C(=O)N1Cc2cn(S(=O)(=O)c3ccc(OC(F)F)cc3)nc2C1)c1cccc(OC(F)(F)F)c1 [Compound 30, (2R)-2-amino-1-{2-[4-(difluoromethoxy)benzenesulfonyl]-2H,4H,5H,6H-pyrrolo[3,4-c]pyrazol-5-yl}-2-[3-(trifluoromethoxy)phenyl]ethan-1-one]
- AC50: 371 nM

SMILES: N[C@@H](C(=O)N1Cc2cn(S(=O)(=O)c3ccc4c(c3)OCCO4)nc2C1)c1ccccc1F [Compound 58, (2R)-2-amino-1-[2-(2,3-dihydro-1,4-benzodioxine-6-sulfonyl)-2H,4H,5H,6H-pyrrolo[3,4-c]pyrazol-5-yl]-2-(2-fluorophenyl)ethan-1-one]
- AC50: 25 nM

SMILES: COc1ccc(S(=O)(=O)n2cc3c(n2)CN(C(=O)[C@H](O)c2ncccc2F)C3)cc1 (single isomer, unassigned) [Compound 87, (2R)-2-(3-fluoropyridin-2-yl)-2-hydroxy-1-[2-(4-methoxybenzenesulfonyl)-2H,4H,5H,6H-pyrrolo[3,4-c]pyrazol-5-yl]ethan-1-one or (2R)-2-(3-fluoropyridin-2-yl)-2-hydroxy-1-[2-(4-methoxybenzenesulfonyl)-2H,4H,5H,6H-pyrrolo[3,4-c]pyrazol-5-yl]ethan-1-one]
- AC50: 25 nM
- PKR % activation: 156%

SMILES: O=C([C@@H](c1ccccc1)N1CCOCC1)N1Cc2cn(S(=O)(=O)c3ccc(OC(F)F)cc3)nc2C1 (single isomer, unassigned) [Compound 107, (2R)-1-{2-[4-(difluoromethoxy)benzenesulfonyl]-2H,4H,5H,6H-pyrrolo[3,4-c]pyrazol-5-yl}-2-(morpholin-4-yl)-2-phenylethan-1-one or (2S)-1-{2-[4-(difluoromethoxy)benzenesulfonyl]-2H,4H,5H,6H-pyrrolo[3,4-c]pyrazol-5-yl}-2-(morpholin-4-yl)-2-phenylethan-1-one]
- AC50: > 10000 nM
- PKR % activation: 0%

SMILES: O=C(C(CO)c1ccncc1)N1Cc2cn(S(=O)(=O)c3ccc4ncsc4c3)nc2C1 (racemic) [Compound 27, 1-[2-(1,3-benzothiazole-6-sulfonyl)-2H,4H,5H,6H-pyrrolo[3,4-c]pyrazol-5-yl]-3-hydroxy-2-(pyridin-4-yl)propan-1-one]
- AC50: 39 nM

SMILES: O=C([C@H](CO)c1ccccc1)N1Cc2cn(S(=O)(=O)c3ccc(OC4COC4)nc3)nc2C1 [Compound 95, (2S)-3-hydroxy-1-(2-{[6-(oxetan-3-yloxy)pyridin-3-yl]sulfonyl}-2H,4H,5H,6H-pyrrolo[3,4-c]pyrazol-5-yl)-2-phenylpropan-1-one]
- AC50: 7080 nM

SMILES: N[C@@H](C(=O)N1Cc2cn(S(=O)(=O)c3ccc(OC(F)F)cc3)nc2C1)c1cccc(Cl)c1 [Compound 50, (2R)-2-amino-2-(3-chlorophenyl)-1-{2-[4-(difluoromethoxy)benzenesulfonyl]-2H,4H,5H,6H-pyrrolo[3,4-c]pyrazol-5-yl}ethan-1-one]
- AC50: 71 nM

SMILES: O=C([C@H](CO)c1ccccc1)N1Cc2cn(S(=O)(=O)c3ccc(C4CC4)nc3)nc2C1 [Compound 101, (2S)-1-{2-[(6-cyclopropylpyridin-3-yl)sulfonyl]-2H,4H,5H,6H-pyrrolo[3,4-c]pyrazol-5-yl}-3-hydroxy-2-phenylpropan-1-one]
- AC50: 41 nM

SMILES: O=C(N1Cc2cn(S(=O)(=O)c3ccc4ncsc4c3)nc2C1)C1(c2ccccc2)COCCN1 (stereo not shown) [Compound 21, 6-{[5-(3-phenylmorpholine-3-carbonyl)-2H,4H,5H,6H-pyrrolo[3,4-c]pyrazol-2-yl]sulfonyl}-1,3-benzothiazole]
- AC50: 209 nM

SMILES: O=C([C@H](CO)c1ccccc1)N1Cc2cn(S(=O)(=O)c3ccc4nccnc4c3)nc2C1 [Compound 94, (2S)-3-hydroxy-2-phenyl-1-[2-(quinoxaline-6-sulfonyl)-2H,4H,5H,6H-pyrrolo[3,4-c]pyrazol-5-yl]propan-1-one]
- AC50: 17 nM

SMILES: CC(C)(O)[C@H](C(=O)N1Cc2cn(S(=O)(=O)c3ccc4occc4c3)nc2C1)c1ccccc1 [Compound 33, (2R)-1-[2-(1-benzofuran-5-sulfonyl)-2H,4H,5H,6H-pyrrolo[3,4-c]pyrazol-5-yl]-3-hydroxy-3-methyl-2-phenylbutan-1-one]
- AC50: 130 nM

SMILES: CC(C)(O)[C@@H](C(=O)N1Cc2cn(S(=O)(=O)c3ccc4occc4c3)nc2C1)c1ccccc1 [Compound 34, (2S)-1-[2-(1-benzofuran-5-sulfonyl)-2H,4H,5H,6H-pyrrolo[3,4-c]pyrazol-5-yl]-3-hydroxy-3-methyl-2-phenylbutan-1-one]
- AC50: 210 nM

SMILES: O=C([C@H](CO)c1ccccc1F)N1Cc2cn(S(=O)(=O)c3cnc4c(c3)OCCO4)nc2C1 [Compound 80, (2S)-1-(2-{2H,3H-[1,4]dioxino[2,3-b]pyridine-7-sulfonyl}-2H,4H,5H,6H pyrrolo[3,4-c]pyrazol-5-yl)-2-(2-fluorophenyl)-3-hydroxypropan-1-one]
- AC50: 2.1 nM
